Calls of active or inactive are those of the source.
Tests used:
Mus musculus [1] = assay: Anticonvulsant activity in albino CF1 mouse assessed as protection against subcutaneous metrazole-induced seizures at 30 mg/kg, ip after 4 hrs; type: functional, organism-based; design: dose 30 mg/kg
Mus musculus [2] = assay: Neurotoxicity in albino CF1 mouse assessed as minimal motor impairment at 30 mg/kg, ip after 0.5 hrs by rotarod test; type: toxicity, organism-based; design: dose 30 mg/kg, route intraperitoneal; settings: in vivo
Mus musculus [3] = assay: Neurotoxicity in albino CF1 mouse assessed as minimal motor impairment at 30 to 300 mg/kg, ip after 0.5 hrs by rotarod test; settings: in vivo
Mus musculus [4] = assay: Anticonvulsant activity against maximal electroshock-induced seizures in ip dosed albino CF1 mouse assessed as minimum effective dose after 0.5 hrs; type: functional; settings: read-out: MED
Mus musculus [5] = assay: Anticonvulsant activity ip dosed albino CF1 mouse assessed as protection against subcutaneous metrazole-induced seizures after 0.25 hrs; type: functional; settings: albino CF1, 0.25 h
Mus musculus [6] = assay: Neurotoxicity in ip dosed albino CF1 mouse assessed as minimum dose required to cause toxicity after 4 hrs by rotarod test; type: organism-based; settings: in vivo
Mus musculus [7] = assay: Neurotoxicity in albino CF1 mouse assessed as minimal motor impairment at 100 mg/kg, ip after 0.5 hrs by rotarod test; type: toxicity, organism-based; design: dose 100 mg/kg, route intraperitoneal; settings: in vivo
Mus musculus [8] = assay: Protective index, ratio of TD50 for albino CF1 mouse by rotarod test to ED50 for albino CF1 mouse by subcutaneous metrazol seizures test; type: functional
Mus musculus [9] = assay: Neurotoxicity in albino CF1 mouse assessed as minimal motor impairment at 70 mg/kg, ip after 0.25 hrs by rotarod test; type: toxicity, organism-based; design: dose 70 mg/kg, route intraperitoneal; settings: in vivo
Rattus norvegicus [10] = assay: Neurotoxicity in albino Sprague-Dawley rat assessed as minimal motor impairment at 30 mg/kg, po by rotarod test; type: toxicity, organism-based; design: dose 30 mg/kg, route oral; settings: in vivo
Rattus norvegicus [11] = assay: Anticonvulsant activity in albino Sprague-Dawley rat assessed as protection against maximal electroshock-induced seizures at 30 mg/kg, po after 4 hrs; type: functional, organism-based; design: dose 30 mg/kg
Mus musculus [12] = assay: Neurotoxicity in albino CF1 mouse assessed as minimal motor impairment at 300 mg/kg, ip after 0.5 hrs by rotarod test; type: toxicity, organism-based; design: dose 300 mg/kg, route intraperitoneal; settings: in vivo
Mus musculus [13] = assay: Anticonvulsant activity against maximal electroshock-induced seizures in ip dosed albino CF1 mouse assessed as minimum effective dose after 4 hrs; type: functional; settings: read-out: MED
Mus musculus [14] = assay: Anticonvulsant activity in albino CF1 mouse assessed as protection against subcutaneous metrazole-induced seizures at 70 mg/kg, ip after 0.25 hrs; type: functional, organism-based; design: dose 70 mg/kg
Mus musculus [15] = organism: Mus musculus; assay: Protective index, ratio of TD50 for albino CF1 mouse by rotarod test to ED50 for albino CF1 mouse by maximal electroshock seizures test; type: functional
Rattus norvegicus [16] = assay: Anticonvulsant activity in albino Sprague-Dawley rat assessed as protection against maximal electroshock-induced seizures at 30 mg/kg, po after 0.25 hrs; type: functional, organism-based; design: dose 30 mg/kg
Mus musculus [17] = assay: Anticonvulsant activity against subcutaneous metrazole-induced seizures in ip dosed albino CF1 mouse assessed as minimum effective dose after 4 hrs; type: functional; settings: albino CF1, 4 h, read-out: MED
Mus musculus [18] = assay: Anticonvulsant activity in albino CF1 mouse assessed as protection against subcutaneous metrazole-induced seizures at 300 mg/kg, ip after 4 hrs; type: functional, organism-based; design: dose 300 mg/kg
Mus musculus [19] = assay: Anticonvulsant activity in albino CF1 mouse assessed as protection against maximal electroshock-induced seizures at 100 mg/kg, ip after 0.5 hrs; type: functional, organism-based; design: dose 100 mg/kg
Mus musculus [20] = assay: Anticonvulsant activity ip dosed albino CF1 mouse assessed as protection against maximal electroshock-induced seizures after 0.25 hrs; type: functional
Mus musculus [21] = assay: Anticonvulsant activity in albino CF1 mouse assessed as protection against maximal electroshock-induced seizures at 35 mg/kg, ip after 0.25 hrs; type: functional, organism-based; design: dose 35 mg/kg
Mus musculus [22] = assay: Anticonvulsant activity in albino CF1 mouse assessed as protection against maximal electroshock-induced seizures at 70 mg/kg, ip after 0.25 hrs; type: functional, organism-based; design: dose 70 mg/kg
Mus musculus [23] = assay: Anticonvulsant activity in albino CF1 mouse assessed as protection against subcutaneous metrazole-induced seizures at 100 mg/kg, ip after 0.5 hrs; type: functional, organism-based; design: dose 100 mg/kg
Mus musculus [24] = assay: Anticonvulsant activity against subcutaneous metrazole-induced seizures in ip dosed albino CF1 mouse assessed as minimum effective dose after 0.5 hrs; type: functional; settings: albino CF1, 0.5 h, read-out: MED
Mus musculus [25] = assay: Neurotoxicity in ip dosed albino CF1 mouse assessed as minimal motor impairment after 0.25 hrs by rotarod test; type: toxicity, organism-based; settings: in vivo
Mus musculus [26] = assay: Anticonvulsant activity in albino CF1 mouse assessed as protection against maximal electroshock-induced seizures at 30 mg/kg, ip after 4 hrs; type: functional, organism-based; design: dose 30 mg/kg
Mus musculus [27] = assay: Neurotoxicity in albino CF1 mouse assessed as minimal motor impairment at 300 mg/kg, ip after 4 hrs by rotarod test; type: toxicity, organism-based; design: dose 300 mg/kg, route intraperitoneal; settings: in vivo
Rattus norvegicus [28] = assay: Anticonvulsant activity in albino Sprague-Dawley rat assessed as protection against maximal electroshock-induced seizures at 30 mg/kg, po after 2 hrs; type: functional, organism-based; design: dose 30 mg/kg
Mus musculus [29] = assay: Anticonvulsant activity in albino CF1 mouse assessed as protection against maximal electroshock-induced seizures at 300 mg/kg, ip after 0.5 hrs; type: functional, organism-based; design: dose 300 mg/kg
Mus musculus [30] = assay: Neurotoxicity in albino CF1 mouse assessed as minimal motor impairment at 100 mg/kg, ip after 4 hrs by rotarod test; type: toxicity, organism-based; design: dose 100 mg/kg, route intraperitoneal; settings: in vivo
[31] = molecular target: Sodium channel protein type 2 subunit alpha (Homo sapiens, UniProt Q99250); assay: Inhibition of human NaV1.2 expressed in HEK cells at -60 mV holding potential by patch clamp recording technique; type: cell-based, HEK293
Chain of Sodium channel protein type 2 subunit alpha (Q99250 whole entry): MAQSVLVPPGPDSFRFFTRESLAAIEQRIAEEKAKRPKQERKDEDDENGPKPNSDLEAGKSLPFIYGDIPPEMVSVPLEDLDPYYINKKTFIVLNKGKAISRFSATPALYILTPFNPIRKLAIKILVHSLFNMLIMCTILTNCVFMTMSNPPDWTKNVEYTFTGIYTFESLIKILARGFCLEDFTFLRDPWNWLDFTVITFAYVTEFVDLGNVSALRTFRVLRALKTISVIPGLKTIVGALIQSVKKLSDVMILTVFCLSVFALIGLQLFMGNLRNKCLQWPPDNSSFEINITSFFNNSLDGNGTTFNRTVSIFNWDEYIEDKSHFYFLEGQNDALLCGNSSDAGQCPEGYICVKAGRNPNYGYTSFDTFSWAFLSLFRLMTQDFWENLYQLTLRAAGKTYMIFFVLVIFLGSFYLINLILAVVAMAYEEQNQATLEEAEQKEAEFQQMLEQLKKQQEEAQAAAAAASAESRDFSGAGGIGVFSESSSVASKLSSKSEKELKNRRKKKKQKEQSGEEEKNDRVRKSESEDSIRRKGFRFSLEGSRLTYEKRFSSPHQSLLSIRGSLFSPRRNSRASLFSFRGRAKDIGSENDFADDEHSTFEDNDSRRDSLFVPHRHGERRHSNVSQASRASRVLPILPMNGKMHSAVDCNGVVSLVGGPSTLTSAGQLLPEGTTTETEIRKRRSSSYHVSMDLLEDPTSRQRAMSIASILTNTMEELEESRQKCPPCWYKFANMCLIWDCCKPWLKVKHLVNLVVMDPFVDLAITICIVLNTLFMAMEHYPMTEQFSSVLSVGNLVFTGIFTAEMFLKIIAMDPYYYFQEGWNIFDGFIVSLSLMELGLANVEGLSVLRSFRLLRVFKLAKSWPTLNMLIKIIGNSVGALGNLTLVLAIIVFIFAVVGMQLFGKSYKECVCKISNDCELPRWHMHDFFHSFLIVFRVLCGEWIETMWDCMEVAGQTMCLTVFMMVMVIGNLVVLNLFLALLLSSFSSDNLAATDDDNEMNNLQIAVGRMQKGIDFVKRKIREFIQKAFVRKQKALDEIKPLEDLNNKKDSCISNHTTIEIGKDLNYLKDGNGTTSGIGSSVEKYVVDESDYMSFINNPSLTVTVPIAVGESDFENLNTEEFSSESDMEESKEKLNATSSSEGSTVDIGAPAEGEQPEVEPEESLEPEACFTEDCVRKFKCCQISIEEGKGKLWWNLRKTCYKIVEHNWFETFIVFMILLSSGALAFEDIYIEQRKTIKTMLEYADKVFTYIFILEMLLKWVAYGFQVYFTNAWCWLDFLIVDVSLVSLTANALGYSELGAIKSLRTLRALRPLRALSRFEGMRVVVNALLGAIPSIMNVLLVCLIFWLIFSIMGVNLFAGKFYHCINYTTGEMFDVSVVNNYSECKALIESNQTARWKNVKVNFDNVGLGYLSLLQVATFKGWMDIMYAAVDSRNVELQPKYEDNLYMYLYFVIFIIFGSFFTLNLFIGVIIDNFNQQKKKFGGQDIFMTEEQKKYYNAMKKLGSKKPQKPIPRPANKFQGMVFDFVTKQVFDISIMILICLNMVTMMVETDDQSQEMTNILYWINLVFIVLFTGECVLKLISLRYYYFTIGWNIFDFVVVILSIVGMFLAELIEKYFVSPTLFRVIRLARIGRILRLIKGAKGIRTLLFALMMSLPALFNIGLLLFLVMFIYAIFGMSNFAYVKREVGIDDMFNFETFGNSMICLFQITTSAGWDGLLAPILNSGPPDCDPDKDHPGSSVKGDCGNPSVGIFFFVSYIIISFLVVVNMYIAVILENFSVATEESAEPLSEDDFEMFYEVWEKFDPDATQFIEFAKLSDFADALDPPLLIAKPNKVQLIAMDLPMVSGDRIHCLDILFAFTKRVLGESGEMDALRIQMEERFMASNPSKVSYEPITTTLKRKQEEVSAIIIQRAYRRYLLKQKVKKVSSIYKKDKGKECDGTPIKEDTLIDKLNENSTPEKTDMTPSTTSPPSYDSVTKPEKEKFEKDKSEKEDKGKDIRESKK

Mus musculus [32] = assay: Anticonvulsant activity in albino CF1 mouse assessed as protection against maximal electroshock-induced seizures at 300 mg/kg, ip after 4 hrs; type: functional, organism-based; design: dose 300 mg/kg
Mus musculus [33] = assay: Anticonvulsant activity in albino CF1 mouse assessed as protection against subcutaneous metrazole-induced seizures at 100 mg/kg, ip after 4 hrs; type: functional, organism-based; design: dose 100 mg/kg
Mus musculus [34] = assay: Neurotoxicity in albino CF1 mouse assessed as minimal motor impairment at 350 mg/kg, ip after 0.25 hrs by rotarod test; type: toxicity, organism-based; design: dose 350 mg/kg, route intraperitoneal; settings: in vivo
Rattus norvegicus [35] = assay: Anticonvulsant activity in albino Sprague-Dawley rat assessed as protection against maximal electroshock-induced seizures at 30 mg/kg, po after 0.5 hrs; type: functional, organism-based; design: dose 30 mg/kg
Mus musculus [36] = assay: Neurotoxicity in albino CF1 mouse assessed as minimal motor impairment at 30 mg/kg, ip after 4 hrs by rotarod test; type: toxicity, organism-based; design: dose 30 mg/kg, route intraperitoneal; settings: in vivo
Mus musculus [37] = assay: Anticonvulsant activity in albino CF1 mouse assessed as protection against maximal electroshock-induced seizures at 30 mg/kg, ip after 0.5 hrs; type: functional, organism-based; design: dose 30 mg/kg
Mus musculus [38] = assay: Neurotoxicity in ip dosed albino CF1 mouse assessed as minimum dose required to cause toxicity after 0.5 hrs by rotarod test; type: organism-based; settings: in vivo
Mus musculus [39] = assay: Neurotoxicity in albino CF1 mouse assessed as minimal motor impairment at 30 to 300 mg/kg, po after 4 hrs by rotarod test; type: toxicity, organism-based; design: dose 30-300 mg/kg, route oral; settings: in vivo
Mus musculus [40] = assay: Anticonvulsant activity in albino CF1 mouse assessed as protection against subcutaneous metrazole-induced seizures at 30 mg/kg, ip after 0.5 hrs; type: functional, organism-based; design: dose 30 mg/kg
Mus musculus [41] = assay: Anticonvulsant activity in albino CF1 mouse assessed as protection against subcutaneous metrazole-induced seizures at 300 mg/kg, ip after 0.5 hrs; type: functional, organism-based; design: dose 300 mg/kg

COc1ccc(-c2nc(-c3ccccc3)c[nH]2)cc1
200.8 mg/kg: TD50 (Mus musculus [25])
active: Activity (Mus musculus [19]) | Activity (Mus musculus [22]) | Activity (Mus musculus [29]) | Activity (Mus musculus [32]) | Activity (Mus musculus [41])
1.4: PI (Mus musculus [8])
> 300 mg/kg: minimal effective dose (Mus musculus [17])
4.3: PI (Mus musculus [15])
Toxic: Activity (Mus musculus [12]) | Activity (Mus musculus [27]) | Activity (Mus musculus [34])
> 30 mg/kg: minimal effective dose (Mus musculus [4])
142 mg/kg: ED50 (Mus musculus [5])
100 mg/kg: MED (Mus musculus [6]) | minimal effective dose (Mus musculus [13]) | minimal effective dose (Mus musculus [24]) | MED (Mus musculus [38])
Non-toxic: Activity (Mus musculus [2]) | Activity (Mus musculus [3]) | Activity (Mus musculus [7]) | Activity (Mus musculus [9]) | Activity (Rattus norvegicus [10]) | Activity (Mus musculus [30]) | Activity (Mus musculus [36]) | Activity (Mus musculus [39])
21.4 µM: IC50 [31]
inactive: Activity (Mus musculus [1]) | Activity (Rattus norvegicus [11]) | Activity (Mus musculus [14]) | Activity (Rattus norvegicus [16]) | Activity (Mus musculus [18]) | Activity (Mus musculus [21]) | Activity (Mus musculus [23]) | Activity (Mus musculus [26]) | Activity (Rattus norvegicus [28]) | Activity (Mus musculus [33]) | Activity (Rattus norvegicus [35]) | Activity (Mus musculus [37]) | Activity (Mus musculus [40])
46.8 mg/kg: ED50 (Mus musculus [20])

— ChEMBL document CHEMBL1275354, “Anticonvulsant activity of 2,4(1H)-diarylimidazoles in mice and rats acute seizure models” (Bioorg Med Chem, 2010)
